The values below come from US20180066268A1, “USE OF VITAMINS AND VITAMIN METABOLIC GENES AND PROTEINS FOR RECOMBINANT PROTEIN PRODUCTION IN MAMMALIAN CELLS” (priority 2015, published 2018).

The subject of experiment [1] is CHO-M cells. Briefly: CHO-M growth in vitamin-depleted B-CDmin medium complemented with lower concentrations of each vitamin. The class given is cell-based, Chinese hamster. On the procedure:
Cells (5000 cells/ml) were transferred into 150 μl media with different concentrations of vitamin B1, B5 or H (from 0 to 1×, see Table 2). 96 well-plates were used and growth was measured after 9 days of culture, by measuring the OD at 600 nm. Hatched (forward-leaning), dotted dark and hatched (backward-leaning) bars indicate modulation of B1, B5 and H concentrations, respectively.
The depleted B-CDmin medium was complemented with lower concentration of each vitamin separately, to determine the contrations range limiting CHO-M growth.
Suspension Chinese hamster ovary cells (CHO-M) were maintained in suspension culture in SFM4CHO-M Hyclone serum-free medium (SFM, ThermoScientific™) supplemented with L-glutamine (PAA, Austria) and HT supplement (GIBCO, INVITROGEN LIFE SCIENCES) at […], 5% CO2 in humidified air. Other cell media used for these experiments are the BalanCD CHO-M Growth A (B-CDfull; Irvine Scientific), and the Deficient BalanCD CHO-M Growth A (B-CDmin; Irvine Scientific), supplemented with vitamin B1 (thiamine Hydrochloride; SIGMA ALDRICH), vitamin B5 (Calcium DL-Pantothenate; TCI) and vitamin H (Biotin, SIGMA ALDRICH)

Experiment [2] has as its system CHO-M cells. Kind of experiment: CHO-M growth in B-CDmin medium supplemented with various concentrations of B5 and H. It counts as cell-based, Chinese hamster. To be noted: B5 in 10× excess with low H (10×B5; 10^−4×H), 6 days of culture.
Protocol: Cells were seeded at 20000 cells/ml into 500 μl of B-CD min media supplemented with the indicated amounts of vitamin B5 and H, and with B1 (1×). A 24 well-plate was used and growth was measured after 6 days of culture by measuring viable cell density.

`O=C(O)CCCC[C@@H]1SC[C@@H]2NC(=O)N[C@@H]21` [H, Biotin]: the “cell density versus full medium” value in the experiment on CHO-M cells [1] (H at low concentration (10^−5×)) is given as “slightly higher”. The same compound came in with a limiting concentration in the experiment on CHO-M cells [1] (absolute concentration as printed, CHO-M, 9 days of culture) of less than 5 µM. For the same compound, the growth-limiting concentration range result in the experiment with CHO-M cells [1] (relative to standard concentration (1×: B1 7.5 μM, B5 2.5 μM, H 0.5 μM), CHO-M, 9 days of culture) is “lower than 10^−5 ×”.
Calcium DL-Pantothenate [B5]: the “untransformed cell growth relative to complete medium (1×B5; 10^−4×H)” value with CHO-M cells [2] is given as “strongly inhibited”. Also, the “concentration allowing normal culture growth” value in the experiment with CHO-M cells [1] (relative to standard B5 concentration (1× = 2.5 μM)) is given as ≥ 10^−2 ×.
